In patent US20250263370A1 (Tay Therapeutics Limited, priority 2022, published 2025) one finds IC50, Fold selectivity and remaining activity data, which are given here for 27 compounds.

What is called IC50 is the concentration that inhibits the measured activity by half. A word on the remaining activity: it is what remains of the control signal, in per cent.

Read-outs that look alike come from different tables or passages of the source.

The target of one experiment is BRD4 BD2 (Homo sapiens (Human), UniProt O60885). In words: NanoBRET bromodomain assay, NanoLuc-BRD4-BD2 fusion in HEK293 cells.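 As to all read-outs here: tracer displacement BRET read in transfected cells after 2 h compound exposure at 37 °C, signal in milliBRET units corrected against no-tracer background wells.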 Conditions: for IC50: NanoBRET, HEK293 cells, top concentration 10 μM; for Fold selectivity: IC50 for BRD4 BD1 divided by IC50 for BRD4 BD2, qualitative if an IC50 is at the upper limit. In general terms: In BRET a luciferase serves as donor, and the signal depends on an acceptor being close.

In another experiment the target is BRD4 BD1 (Homo sapiens (Human), UniProt O60885). In words: NanoBRET bromodomain assay, NanoLuc-BRD4-BD1 fusion in HEK293 cells. The format is cell-based. Conditions: top concentration 10 μM.

Protocol for BRD4 BD1: HEK293 cells were transfected using NanoLuc-BRD4-BD1 or NanoLuc-BRD4-BD2 fusion vectors and incubated at 37° C. in an atmosphere of 5% CO2 for 20-24 hours. The transfected cells were then dispensed into 96-well plates using 90 μl cell suspension per well containing 2×10^5 cells/mL in Opti-MEM and 1× final concentration of tracer. 90 μL per well of cell suspension without tracer was also dispensed into at least 3 wells as “No tracer control samples” for background correction. Serially diluted test compounds were prepared at 1000× concentration in DMSO and further diluted to 10× concentration in Opti-MEM. […] Plates were then incubated at 37° C. +5% 002 incubator for 2 hours. […] Donor emission (450 nm) and acceptor emission (610 nm) were measured using PHERAstar (BMG LabTech). For data analysis, the raw BRET ratio was generated and converted to milliBRET units with background correction using the formula: [(Acceptorsample/Donorsample−(Acceptorno tracer control/Donorno tracer control)]×1000. The mBU data was plotted as a function of compound concentration and IC50s for BRET assay were determined by nonlinear regression analysis of concentration response curves using the Collaborative Drug Discovery Vault software. The fold-selectivity was calculated by dividing the IC50 for BRD4 BD1 by the IC50 for BRD4 BD2.

For `CNC(=O)c1[nH]c(-c2cc(C)nc(C)c2)cc1O[C@@H](C)c1ccccc1` [Example 90, (S)-5-(2,6-dimethylpyridin-4-yl)-N-methyl-3-(1-phenylethoxy)-1H-pyrrole-2-carboxamide], the results for the half-inhibitory concentration (IC50) on BRD4 BD2 (BRD4 BD2 (IC50)) and against BRD4 BD1 were 200 to 1000 nM and at least 10000 nM, respectively. Moreover, the Fold selectivity entry at BRD4 BD2 is “X (Fold >2 and ≤50)”.

As for `CNC(=O)c1[nH]c(C(=O)NC(C)(C)C)cc1O[C@@H](C)c1ccccc1` [Example 121], the figures for the IC50 against BRD4 BD2 (BRD4 BD2 (IC50)) and on BRD4 BD1 were 200 to 1000 nM and at least 10000 nM, respectively. For the same compound, the Fold selectivity result at BRD4 BD2 is “X (Fold >2 and ≤50)”.

In the case of `CCNC(=O)c1cc(OC(C)c2c(Cl)cccc2Cl)c(C(=O)NC)[nH]1` (single isomer, unassigned) [Example 67, 3-(1-(2,6-dichlorophenyl)ethoxy)-N^5-ethyl-N^2-methyl-1H-pyrrole-2,5-dicarboxamide], on BRD4 BD2, the Fold selectivity result is “— (Fold ≥0 and ≤2)”. In addition, the figures for the IC50 on BRD4 BD2 (read-out: BRD4 BD2 (IC50)) and at BRD4 BD1 were above 10000 nM and at least 10000 nM, respectively.

Regarding `CCNC(=O)c1cc(OC(CC)c2ccccc2)c(C(=O)NC)[nH]1` (racemic) [Example 126, N^5-ethyl-N^2-methyl-3-(1-phenylpropoxy)-1H-pyrrole-2,5-dicarboxamide], the IC50 is 200 to 1000 nM against BRD4 BD2 (BRD4 BD2 (IC50)) and at least 10000 nM against BRD4 BD1. Also, the Fold selectivity entry on BRD4 BD2 was “X (Fold >2 and ≤50)”.

For `CCNC(=O)c1cc(OC(C)c2ccc(F)cc2F)c(C(=O)NC)[nH]1` (racemic) [Example 14, 3-(1-(2,4-difluorophenyl)ethoxy)-N^5-ethyl-N^2-methyl-1H-pyrrole-2,5-dicarboxamide], the IC50 was 200 to 1000 nM on BRD4 BD2 (BRD4 BD2 (IC50)) and at least 10000 nM against BRD4 BD1. The Fold selectivity entry on BRD4 BD2 is “X (Fold >2 and ≤50)”.

Take `CNC(=O)c1[nH]c(C(=O)NCC(F)(F)F)cc1O[C@@H](C)c1ccccc1F` [Example 57, (S)-3-(1-(2-fluorophenyl)ethoxy)-N^2-methyl-N^5-(2,2,2-trifluoroethyl)-1H-pyrrole-2,5-dicarboxamide]: the IC50 against BRD4 BD2 (BRD4 BD2 (IC50)) is 200 to 1000 nM; against BRD4 BD1, at least 10000 nM. For the same compound, the Fold selectivity entry at BRD4 BD2 is “X (Fold >2 and ≤50)”.

As to `CCNC(=O)c1cc(OC(C)c2ccc(C#N)cc2)c(C(=O)NC)[nH]1` (racemic) [Example 9, 3-(1-(4-cyanophenyl)ethoxy)-N^5-ethyl-N^2-methyl-1H-pyrrole-2,5-dicarboxamide], the IC50 was above 10000 nM at BRD4 BD2 (BRD4 BD2 (IC50)) and at least 10000 nM at BRD4 BD1. The Fold selectivity result at BRD4 BD2 was “— (Fold ≥0 and ≤2)”.

As for `CCCC(Oc1cc(C(=O)NCC)[nH]c1C(=O)NC)c1ccccc1` (racemic) [Example 16, N^5-ethyl-N^2-methyl-3-(1-phenylbutoxy)-1H-pyrrole-2,5-dicarboxamide], the 50% inhibitory concentration (IC50) at BRD4 BD2 (BRD4 BD2 (IC50)) is 200 to 1000 nM; against BRD4 BD1, at least 10000 nM. In addition, the Fold selectivity result at BRD4 BD2 was “X (Fold >2 and ≤50)”.

For `CNC(=O)c1[nH]c(-c2nc(C)c(C)[nH]2)cc1O[C@@H](C)c1ccccc1` [Example 87, (S)-5-(4,5-dimethyl-1H-imidazol-2-yl)-N-methyl-3-(1-phenylethoxy)-1H-pyrrole-2-carboxamide], the IC50 was 50 to 200 nM against BRD4 BD2 (BRD4 BD2 (IC50)) and at least 10000 nM against BRD4 BD1. Further, the Fold selectivity entry at BRD4 BD2 was “XX (Fold >50 and ≤200)”.

Turning to `CNC(=O)c1[nH]c(NC(C)=O)cc1O[C@@H](C)c1ccccc1F` [Example 128, (S)-5-acetamido-3-(1-(2-fluorophenyl)ethoxy)-N-methyl-1H-pyrrole-2-carboxamide], the IC50 is 50 to 200 nM against BRD4 BD2 (BRD4 BD2 (IC50)) and at least 10000 nM on BRD4 BD1. The Fold selectivity result at BRD4 BD2 was “XX (Fold >50 and ≤200)”.

`CCNC(=O)c1cc(OC(C)c2ccc(C(F)(F)F)cc2)c(C(=O)NC)[nH]1` (racemic) [Example 1, N^5-ethyl-N^2-methyl-3-(1-(4-(trifluoromethyl)phenyl)ethoxy)-1H-pyrrole-2,5-dicarboxamide]: the 50% inhibitory concentration (IC50) against BRD4 BD2 (BRD4 BD2 (IC50)) is 200 to 1000 nM; against BRD4 BD1, at least 10000 nM. The Fold selectivity entry at BRD4 BD2 was “X (Fold >2 and ≤50)”.

For `CCNC(=O)c1cc(OC(C)c2ccc(C)cc2)c(C(=O)NC)[nH]1` (single isomer, unassigned) [Example 25, N^5-ethyl-N^2-methyl-3-(1-(p-tolyl)ethoxy)-1H-pyrrole-2,5-dicarboxamide], the half-inhibitory concentration (IC50) is below 50 nM against BRD4 BD2 (BRD4 BD2 (IC50)) and at least 10000 nM at BRD4 BD1. Moreover, on BRD4 BD2, the Fold selectivity result is reported as “XXX (Fold >200)”.

`CCNC(=O)c1cc(OC(C)c2c(C)cccc2C)c(C(=O)NC)[nH]1` (single isomer, unassigned) [Example 65, 3-(1-(2,6-dimethylphenyl)ethoxy)-N^5-ethyl-N^2-methyl-1H-pyrrole-2,5-dicarboxamide]: the half-maximal inhibitory concentration (IC50) is above 10000 nM on BRD4 BD2 (BRD4 BD2 (IC50)) and at least 10000 nM at BRD4 BD1. On BRD4 BD2, the Fold selectivity entry was “— (Fold ≥0 and ≤2)”.

Turning to `CCNC(=O)c1cc(OC(C)c2ccccc2C)c(C(=O)NC)[nH]1` (racemic) [Example 5, N^5-ethyl-N^2-methyl-3-(1-(o-tolyl)ethoxy)-1H-pyrrole-2,5-dicarboxamide], the IC50 against BRD4 BD2 (BRD4 BD2 (IC50)) was 50 to 200 nM; at BRD4 BD1, at least 10000 nM. The Fold selectivity entry at BRD4 BD2 is “XX (Fold >50 and ≤200)”.

In the case of `CNC(=O)c1[nH]c(-c2ccccc2)cc1O[C@@H](C)c1ccccc1` [Example 84, (S)-N-methyl-5-phenyl-3-(1-phenylethoxy)-1H-pyrrole-2-carboxamide], the IC50 was 1000 to 10000 nM at BRD4 BD2 (BRD4 BD2 (IC50)) and at least 10000 nM against BRD4 BD1. Besides, the Fold selectivity entry on BRD4 BD2 is “X (Fold >2 and ≤50)”.

`CCNC(=O)c1cc(OC(COC)c2ccccc2)c(C(=O)NC)[nH]1` (racemic) [Example 10, N^5-ethyl-3-(2-methoxy-1-phenylethoxy)-N^2-methyl-1H-pyrrole-2,5-dicarboxamide]: the IC50 is above 10000 nM against BRD4 BD2 (BRD4 BD2 (IC50)) and at least 10000 nM against BRD4 BD1. Also, the Fold selectivity entry at BRD4 BD2 was “— (Fold ≥0 and ≤2)”.

Consider `CCNC(=O)c1cc(OC(C)c2cccc(Cl)c2)c(C(=O)NC)[nH]1` (racemic) [Example 3, 3-(1-(3-chlorophenyl)ethoxy)-N^5-ethyl-N^2-methyl-1H-pyrrole-2,5-dicarboxamide], for which the concentration for half-maximal inhibition (IC50) was 50 to 200 nM at BRD4 BD2 (BRD4 BD2 (IC50)) and at least 10000 nM on BRD4 BD1. Further, the Fold selectivity entry at BRD4 BD2 is “XX (Fold >50 and ≤200)”.

As for `CCNC(=O)c1cc(OC(C)c2ccc(OC)cc2)c(C(=O)NC)[nH]1` (single isomer, unassigned) [Example 75, N^5-ethyl-3-(1-(4-methoxyphenyl)ethoxy)-N^2-methyl-1H-pyrrole-2,5-dicarboxamide], the half-maximal inhibitory concentration (IC50) was 50 to 200 nM on BRD4 BD2 (BRD4 BD2 (IC50)) and at least 10000 nM against BRD4 BD1. Besides, the Fold selectivity entry on BRD4 BD2 is “XX (Fold >50 and ≤200)”.

In the case of `CCNC(=O)c1cc(OC(C)c2cccc(F)c2F)c(C(=O)NC)[nH]1` (racemic) [Example 13, 3-(1-(2,3-difluorophenyl)ethoxy)-N^5-ethyl-N^2-methyl-1H-pyrrole-2,5-dicarboxamide], the half-inhibitory concentration (IC50) at BRD4 BD2 (BRD4 BD2 (IC50)) is 200 to 1000 nM; on BRD4 BD1, at least 10000 nM. For the same compound, the Fold selectivity entry at BRD4 BD2 was “X (Fold >2 and ≤50)”.

As to `CCNC(=O)c1cc(OC(C)c2ccc(C)cc2)c(C(=O)NC)[nH]1` (single isomer, unassigned) [Example 26, N^5-ethyl-N^2-methyl-3-(1-(p-tolyl)ethoxy)-1H-pyrrole-2,5-dicarboxamide], the 50% inhibitory concentration (IC50) on BRD4 BD2 (BRD4 BD2 (IC50)) is above 10000 nM; on BRD4 BD1, at least 10000 nM. The Fold selectivity result on BRD4 BD2 is “— (Fold ≥0 and ≤2)”.

With `CCNC(=O)c1cc(OC(C)c2ccc(F)c(F)c2)c(C(=O)NC)[nH]1` (racemic) [Example 12, 3-(1-(3,4-difluorophenyl)ethoxy)-N5-ethyl-N2-methyl-1H-pyrrole-2,5-dicarboxamide], the IC50 against BRD4 BD2 (BRD4 BD2 (IC50)) is 200 to 1000 nM; against BRD4 BD1, at least 10000 nM. Further, the Fold selectivity entry at BRD4 BD2 is “X (Fold >2 and ≤50)”.

For the compound `CNC(=O)c1[nH]c(-c2ncc[nH]2)cc1O[C@@H](C)c1ccccc1` [Example 89, (S)-5-(1H-imidazol-2-yl)-N-methyl-3-(1-phenylethoxy)-1H-pyrrole-2-carboxamide], the half-inhibitory concentration (IC50) is 50 to 200 nM on BRD4 BD2 (BRD4 BD2 (IC50)) and at least 10000 nM against BRD4 BD1. For the same compound, the Fold selectivity result at BRD4 BD2 is “XX (Fold >50 and ≤200)”.

With `CCNC(=O)c1cc(OC(C)c2cccc(F)c2)c(C(=O)NC)[nH]1` (racemic) [Example 123, N^5-ethyl-3-(1-(3-fluorophenyl)ethoxy)-N^2-methyl-1H-pyrrole-2,5-dicarboxamide], the results for the IC50 against BRD4 BD2 (BRD4 BD2 (IC50)) and against BRD4 BD1 were 200 to 1000 nM and at least 10000 nM, respectively. Besides, the Fold selectivity result at BRD4 BD2 was “X (Fold >2 and ≤50)”.

As for `CCNC(=O)c1cc(OC(C)c2ccccc2Cl)c(C(=O)NC)[nH]1` (racemic) [Example 6, 3-(1-(2-chlorophenyl)ethoxy)-N^5-ethyl-N^2-methyl-1H-pyrrole-2,5-dicarboxamide], the concentration for half-maximal inhibition (IC50) was 200 to 1000 nM against BRD4 BD2 (BRD4 BD2 (IC50)) and at least 10000 nM against BRD4 BD1. Further, the Fold selectivity result at BRD4 BD2 is “X (Fold >2 and ≤50)”.

In the case of `CNC(=O)c1[nH]c(-c2ncc(C)[nH]2)cc1O[C@H](C)c1ccccc1` [Example 24, (R)-N-methyl-5-(5-methyl-1H-imidazol-2-yl)-3-(1-phenylethoxy)-1H-pyrrole-2-carboxamide], the half-inhibitory concentration (IC50) against BRD4 BD2 (BRD4 BD2 (IC50)) was 1000 to 10000 nM; against BRD4 BD1, at least 10000 nM. Besides, at BRD4 BD2 (HEK293, read-out: BRD4 BD2 % Activity Remaining @ 10 uM, 10 uM, (2) = second batch), the remaining activity at 10 µM worked out at 41%.

For the compound `CNC(=O)c1[nH]c(C(=O)N[C@H]2CC[C@H](O)CC2)cc1O[C@@H](C)c1ccnnc1` (single isomer, unassigned) [Example 93, N^5-(4-hydroxycyclohexyl)-N^2-methyl-3-(1-(pyridazin-4-yl)ethoxy)-1H-pyrrole-2,5-dicarboxamide], the Fold selectivity result at BRD4 BD2 was “— (Fold ≥0 and ≤2)”. The values for the 50% inhibitory concentration (IC50) on BRD4 BD2 (read-out: BRD4 BD2 (IC50)) and against BRD4 BD1 were above 10000 nM and at least 10000 nM, respectively.

Consider `CNC(=O)c1[nH]c(C(=O)N[C@H]2CC[C@H](O)CC2)cc1OC(C)c1ccc(Cl)cc1F` (single isomer, unassigned) [Example 37, 3-(1-(4-chloro-2-fluorophenyl)ethoxy)-N^5-(trans-4-hydroxycyclohexyl)-N^2-methyl-1H-pyrrole-2,5-dicarboxamide], for which the half-inhibitory concentration (IC50) on BRD4 BD2 (BRD4 BD2 (IC50)) was 1000 to 10000 nM; on BRD4 BD1, at least 10000 nM. Also, the Fold selectivity result at BRD4 BD2 is “— (Fold ≥0 and ≤2)”.
